Source: patent US12180181B1, “4-[4,5-bis(4-bromophenyl)-1-hexyl-1H-imidazol-2-yl]isoquinolin-3-ol as an antimicrobial compound” (KING FAISAL UNIVERSITY, priority 2023, dated 2024)

What was measured:
Format in all cases: cell-based
Conditions in all cases: after 10, 20, 40 and 60 minutes at all dilutions 1:100, 1:200, 1:400, 1:800
[1] = test system: Escherichia coli; assay: Antimicrobial screening by agar dilution, Escherichia coli
Experimental: (§1) The antimicrobial properties of the 4-[4,5-bis(4-bromophenyl)-1-hexyl-1H-imidazol-2-yl]isoquinolin-3-ol was studied by the method of agar dilution. Test solutions of each compound was prepared in concentration of 1% using dimethylformamide as a solvent then they are diluted in physiological solution to obtain the final experimental dilutions 1:100, 1:200, 1:400, 1:800. The effect of these substances are compared with furacillin in a controlled study. The testing microbes used were gram positive bacteria Staphylococcus aureus, gram negative bacteria Pseudomonas aeruginosa and Escherichia coli and Candida albicans fungi were taken. The experiments used for this survey were meat-pentonlu agar (EPA) for cultivation of bacteria and Saburo environment for fungi. Each experiment used 1 ml of test solution on each plate 500 min. Add 2 drops of emulsified with microbes feel. All experimental samples were taken from the agar after 10, 20, 40, 60 minutes in the environment on the basis of Patrk planted. Bacteria were cultivated at a temperature of 37° C. for 1 day and the mushroom was kept in a thermostat for […] at a temperature of 28° C. in the. Then results were checked.

[2] = test system: Candida albicans; assay: Antimicrobial screening by agar dilution, Candida albicans
Experimental: as §1

[3] = test system: Staphylococcus aureus; assay: Antimicrobial screening by agar dilution, Staphylococcus aureus
Experimental: as §1

[4] = test system: Pseudomonas aeruginosa; assay: Antimicrobial screening by agar dilution, Pseudomonas aeruginosa
Experimental: as §1

Measured: inhibition activity (in words)

CCCCCCn1c(-c2c(O)ncc3ccccc23)nc(-c2ccc(Br)cc2)c1-c1ccc(Br)cc1 [4-[4,5-bis(4-bromophenyl)-1-hexyl-1H-imidazol-2-yl]isoquinolin-3-ol]
highest inhibition activity: all assays above
